# Assay results from paper PMC6112376, “Comprehensive Analyses and Prioritization of Tox21 10K Chemicals Affecting Mitochondrial Function by in-Depth Mechanistic Studies” (Environmental Health Perspectives, 2018).
# Like-named read-outs stand apart in the source and are kept apart here.
# Tests used:
# HepG2 cells [1] = assay: cells; details: Homo sapiens; for Emax: HepG2, read-out: MMP assays efficacy (%) HepG2
# [2] = system: isolated rat liver mitochondria; assay: Oxygen consumption, Clark-type oxygen electrode; assay type: biochemical; details: for I-ADP, % of control (O2 consumption rate): glutamate/malate driven state 3 respiration; for I-ADP, % of control (O2 consumption rate) / I-sub, % of control (O2 consumption rate) / II-ADP, % of control (O2 consumption rate) / II-sub, % of control (O2 consumption rate): isolated rat liver mitochondria; for I-sub, % of control (O2 consumption rate): glutamate/malate driven state 4 respiration; for II-ADP, % of control (O2 consumption rate): succinate-driven state 3 respiration; for II-sub, % of control (O2 consumption rate): succinate-driven state 4 respiration; for Potential Mechanism: mitochondrial respiration in isolated rat liver mitochondria, Clark type oxygen electrode, over tested concentrations
# [3] = system: Caenorhabditis elegans strain PE255; assay: In vivo C. elegans ATP status assay; details: for minimal effective concentration: Caenorhabditis elegans, read-out: LEC LUM: lowest effect concentration for luminescence, a measure of nematode ATP content
# HepG2 cells [4] = details: cited from earlier work; for IC50: read-out: MMP assays IC50 (µM) qHTS-HepG2
# rat primary hepatocytes = assay: MMP assay in rat primary hepatocytes; details: for IC50: Rattus norvegicus, Hepatocyte; for MMP assays efficacy (%) Rat Hepatocytes: mean ± SD of three experiments
# [5] = system: Caenorhabditis elegans (Bristol N2); assay: C. elegans larval development and growth assay; details: for minimal effective concentration: Caenorhabditis elegans, read-out: LEC EXT: lowest effect concentration for extinction, a measure of nematode size
# HepG2 cells [6] = assay: ROS-Glo hydrogen peroxide (ROS) assay; assay type: cell-based, human; details: Homo sapiens, HepG2; 2 h treatment; mean±SD of three experiments; read-out: ROS (HepG2) EC50
# hNSC = assay: MMP assay in human neural stem cells (hNSC); assay type: cell-based; details: Homo sapiens, Neural stem cell; 1 h treatment; fresh re-sourced stocks; mean±SD of three experiments; read-out: hNSC IC50 (MMP)
# [7] = system: HeLa cells expressing YFP-Parkin; assay: Parkin translocation assay; assay type: cell-based, human; details: HeLa cells stably expressing YFP-Parkin; treated for 2 h
# HepG2 cells [8] = assay: Intracellular ATP content (cell viability) assay; assay type: cell-based, human; details: 40 h treatment, mean±SD of three experiments
# [9] = system: Nrf2/ARE (ARE-bla HepG2 cells); assay: ARE β-lactamase reporter gene assay; assay type: cell-based, human; details: Homo sapiens, HepG2; 16 h incubation; mean±SD of three experiments; read-out: ARE (HepG2) EC50
# [10] = HepG2, read-out: MMP assays IC50 (µM) HepG2
# [11] = read-out: MMP assays IC50 (µM) Rat Hepatocytes
compound,measurement,setting,value
Cc1cc(Cc2cc(C)cc(C(C)(C)C)c2O)c(O)c(C(C)(C)C)c1,IC50,HepG2 cells [1]; [10],2 µM
same,Emax,HepG2 cells [1],97%
same,"I-ADP, % of control (O2 consumption rate)",[2]; 20 µM,103 (50.8) % of control
same,"I-sub, % of control (O2 consumption rate)",[2]; 20 µM,116 (18.6) % of control
same,"II-ADP, % of control (O2 consumption rate)",[2]; 20 µM,101 (78.4) % of control
same,"II-sub, % of control (O2 consumption rate)",[2]; 20 µM,103 (31.4) % of control
same,"I-ADP, % of control (O2 consumption rate)",[2]; 100 µM,100 (28.6) % of control
same,"I-sub, % of control (O2 consumption rate)",[2]; 100 µM,244 (29.2) % of control
same,"II-ADP, % of control (O2 consumption rate)",[2]; 100 µM,91 (33.1) % of control
same,"II-sub, % of control (O2 consumption rate)",[2]; 100 µM,184 (27.2) % of control
same,Potential Mechanism,[2],Uncoupler
same,LUM: mean difference in luminescence (ATP content) relative to plate controls,[3]; 0.5 µM,-0.1638
same,LUM: mean difference in luminescence (ATP content) relative to plate controls,[3]; 1 µM,-0.2926
same,LUM: mean difference in luminescence (ATP content) relative to plate controls,[3]; 5 µM,-0.4173
same,LUM: mean difference in luminescence (ATP content) relative to plate controls,[3]; 10 µM,-0.05227
same,LUM: mean difference in luminescence (ATP content) relative to plate controls,[3]; 25 µM,0.3804
same,LUM: mean difference in luminescence (ATP content) relative to plate controls,[3]; 50 µM,0.9583
same,LUM: mean difference in luminescence (ATP content) relative to plate controls,[3]; 75 µM,0.4391
same,LUM: mean difference in luminescence (ATP content) relative to plate controls,[3]; 100 µM,0.9663
same,minimal effective concentration,[3],50 µM
same,MMP assays efficacy (%) qHTS-HepG2,HepG2 cells [4],-96±2%
same,IC50,HepG2 cells [4],1.35 ± 0.26 µM
same,IC50,rat primary hepatocytes; [11],3.71 ± 0.47 µM
same,MMP assays efficacy (%) Rat Hepatocytes,rat primary hepatocytes,-125±63%
same,EXT: mean difference in nematode size relative to plate controls,[5]; 0.5 µM,0.1192
same,EXT: mean difference in nematode size relative to plate controls,[5]; 1 µM,0.1294
same,EXT: mean difference in nematode size relative to plate controls,[5]; 5 µM,0.8511
same,EXT: mean difference in nematode size relative to plate controls,[5]; 10 µM,1.077
same,EXT: mean difference in nematode size relative to plate controls,[5]; 25 µM,1.41
same,EXT: mean difference in nematode size relative to plate controls,[5]; 50 µM,2.096
same,EXT: mean difference in nematode size relative to plate controls,[5]; 75 µM,2.103
same,EXT: mean difference in nematode size relative to plate controls,[5]; 100 µM,2.175
same,minimal effective concentration,[5],5 µM
NNc1nc(-c2ccccc2)cs1 [2-Hydrazino-4-phenylthiazole],IC50,"HepG2 cells [1]; HepG2, 1 h, read-out: HepG2 IC50 Galactose (MMP)",48.2 ± 17.5 µM
same,IC50,"HepG2 cells [1]; HepG2, 1 h, read-out: HepG2 IC50 Glucose (MMP)",37.1 ± 6.33 µM
same,IC50,HepG2 cells [1]; [10],10 µM
same,Emax,HepG2 cells [1],103%
same,"I-ADP, % of control (O2 consumption rate)",[2]; 100 µM,94 (50.2) % of control
same,"I-sub, % of control (O2 consumption rate)",[2]; 100 µM,119 (16.0) % of control
same,"II-ADP, % of control (O2 consumption rate)",[2]; 100 µM,88 (59.2) % of control
same,"II-sub, % of control (O2 consumption rate)",[2]; 100 µM,99 (21.4) % of control
same,Potential Mechanism,[2],Inactive
same,EC50,HepG2 cells [6],34.5 ± 28.8 µM
same,IC50,hNSC,14.2 ± 2.56 µM
same,Parkin recruitment,[7],Inactive
same,"ATP (HepG2, glucose) IC50",HepG2 cells [8]; 5 mM glucose,Inactive
same,"ATP (HepG2, galactose) IC50",HepG2 cells [8]; 10 mM galactose,Inactive
same,EC50,[9],6.92 ± 1.73 µM
same,minimal effective concentration,[3],25 µM
same,MMP assays efficacy (%) qHTS-HepG2,HepG2 cells [4],-118±14%
same,IC50,HepG2 cells [4],2.32 ± 0.79 µM
same,Rat hepatocytes (efficacy) (MMP),"rat primary hepatocytes; % of positive control, mean±SD of three experiments",−57.1±16.9%
same,IC50,"rat primary hepatocytes; 1 h, read-out: Rat hepatocytes IC50 (MMP)",54.7 ± 21.1 µM
same,IC50,rat primary hepatocytes; [11],21.5 ± 17.6 µM
same,MMP assays efficacy (%) Rat Hepatocytes,rat primary hepatocytes,-81±30%
same,"LEC (lowest effect concentration), larval growth assay",[5]; 48 h exposure,≤ 10 µM
same,minimal effective concentration,[5],10 µM
